Assay results as given in paper PMC12040169 (PLOS Biology, 2025).

Assay: in vitro
Details: human, hela cells

Row | SMILES | viability at 28.5 h, 10 µM (% viability) [%] | viability at 28.5 h, 10 µM [%]
1 | c1ccc(CSc2ccc(-c3ccncc3)nn2)nc1 [CBK287638] | 101 | –
2 | CCn1c(SCc2cccnc2)nc2c(c1=O)SC(C)C2 (centres unmarked) [CBK287643] | 87.7 | –
3 | COc1ccnc2c1c(=O)n(Cc1ccc(Cl)cc1)c(=O)n2C [CBK287645] | 66.9 | –
4 | Fc1ccc2nc(NCC3CCCO3)sc2c1 (centres unmarked) [CBK287647] | 110 | –
5 | COc1ccc(NC(=O)Cc2csc(NC(=O)c3ccco3)n2)c(OC)c1 [CBK287649] | 91.7 | –
6 | Cc1cc(NC(=O)c2ccccc2)n(-c2nc(C)c(C)c(=O)[nH]2)n1 [CBK287655] | 105 | –
7 | Cc1ccc(S(=O)(=O)Nc2ccc3c(c2)CC(=O)N3)cc1 [CBK287657] | 92.1 | –
8 | O=C(Cc1ccccc1)Nc1nnc(Cc2ccc3c(c2)OCCO3)o1 [CBK287661] | 94.2 | –
9 | O=C(c1ccccc1)N1CCN(c2ccc(-n3cccn3)nn2)CC1 [CBK287662] | 92.2 | –
10 | COc1ccc(NC(=O)c2cc3nc(C)ccc3o2)cc1 [CBK287663] | 102 | –
11 | Cc1ccc(Nc2nc(N3CCOCC3)nc3nccnc23)cc1 [CBK287664] | 120 | –
12 | Cc1nc2sccn2c(=O)c1NC(=O)c1ccccn1 [CBK287665] | 87.2 | –
13 | O=C(Cn1c(=O)n(Cc2cccnc2)c(=O)c2ncccc21)NC1CCCC1 [CBK287666] | 103 | –
14 | COc1ccc(NC(=O)c2cc(C(C)C)n(-c3nc4ccccc4s3)n2)cc1 [CBK287667] | 100 | –
15 | Cc1ccc2nc(NC(=O)c3cc(C)n(C)n3)sc2c1 [CBK287668] | 83.9 | –
16 | CNC(=O)Cn1nc(C)c2cnn(-c3ccccc3)c2c1=O [CBK287669] | 92.8 | –
17 | Cc1ccc(CC(=O)N2CC(=O)Nc3ccccc32)cc1 [CBK287670] | 86.2 | –
18 | Cc1cnc2n(c1=O)C(CC(=O)NCc1ccncc1)CS2 (centres unmarked) [CBK287671] | 111 | –
19 | Cc1ccc(NC(=O)c2cnc(SCc3ccc(F)cc3)n(C)c2=O)cc1C [CBK287674] | 90.5 | –
20 | O=C(CSc1nnc2ccc(-c3ccccc3)nn12)N1CCCCC1 [CBK287678] | 100 | –
21 | Cc1cc(NC(=O)CSc2nnc3ccc(-c4ccccc4)nn23)no1 [CBK287679] | 108 | –

Row | SMILES | viability at 28.5 h, 10 µM (% viability) [%] | viability at 28.5 h, 10 µM [%]
22 | COc1ccc(-c2ccc3nnc(SCc4cccnc4)n3n2)cc1 [CBK287680] | 108 | –
23 | O=C(Nc1cccc(-c2ccc3nncn3n2)c1)c1ccc(F)cc1 [CBK287682] | 87.1 | –
24 | O=C(CSc1nnc2[nH]c(=O)ccn12)NCc1ccccc1Cl [CBK287684] | 95.1 | –
25 | Cc1ccccc1-n1ncc2c(=O)n(Cc3ccccc3)cnc21 [CBK287690] | 96.9 | –
26 | O=C(Cn1cnc2c(cnn2-c2cccc(Cl)c2)c1=O)N1CCCCC1 [CBK287691] | 83.3 | –
27 | Cc1cccc(-n2ncc3c(=O)n(CC(=O)NC4CCCCC4)cnc32)c1C [CBK287694] | 104 | –
28 | Cc1ccc(-n2ncc3c(=O)n(Cc4ccccc4C)cnc32)c(C)c1 [CBK287695] | 107 | –
29 | CC(=O)N(Cc1cccnc1)c1nc2cc3c(cc2s1)OCCO3 [CBK287696] | 99.9 | –
30 | COc1cccc(C(=O)Nc2nc(-c3ccccc3)cs2)c1OC [CBK287697] | 104 | –
31 | COc1cc(-c2nnc(NC(=O)c3ccc(C)cc3)o2)cc(OC)c1OC [CBK287699] | 92.2 | –
32 | CCCC(=O)Nc1nnc(-c2ccc(C)cc2C)o1 [CBK287700] | 107 | –
33 | COc1cc2nc(NC(=O)C3COc4ccccc4O3)sc2cc1OC (centres unmarked) [CBK287702] | 109 | –
34 | Cc1ccc(-c2csc(NC(=O)CS(=O)(=O)c3ccccc3)n2)cc1 [CBK287707] | 89.2 | –
35 | Cc1ccc(NC(=O)c2cnc3sc(C)cn3c2=O)cc1 [CBK287711] | 97.8 | –
36 | COc1ccc(NC(=O)c2cnc3sc(C)cn3c2=O)c(OC)c1 [CBK287712] | 87 | –
37 | CS(=O)(=O)c1ccc(C(=O)Nc2nc(-c3ccccc3)cs2)cc1 [CBK287716] | 102 | –
38 | O=C(CSc1ccc(-c2ccc(-n3ccnc3)cc2)nn1)NCc1ccco1 [CBK287717] | 62.2 | –
39 | CCC(=O)N1CCN(c2nc3ccc(OC)cc3s2)CC1 [CBK287721] | 92.2 | –
40 | O=C(c1cnccn1)N1CCN(c2nc3c(F)cccc3s2)CC1 [CBK287722] | 91.6 | –
41 | COc1ccc(NC(=O)C(=O)NCc2ccncc2)cc1 [CBK287723] | 105 | –
42 | COc1ccccc1NC(=O)C(=O)NCc1cccnc1 [CBK287724] | 97.5 | –

Row | SMILES | viability at 28.5 h, 10 µM (% viability) [%] | viability at 28.5 h, 10 µM [%]
43 | Cc1ccc(C(=O)Nc2cccc(-n3c(C)nc4ccccc4c3=O)c2)cc1 [CBK287725] | 104 | –
44 | CS(=O)(=O)c1cccc(-c2nnc(NC(=O)c3ccccc3)o2)c1 [CBK287726] | 82.4 | –
45 | COc1ccccc1Nc1nc(N2CCOCC2)nc(N2CCOCC2)n1 [CBK287731] | 111 | –
46 | Cc1ccc(Nc2nc(N3CCOCC3)nc(N3CCOCC3)n2)cc1 [CBK287732] | 118 | –
47 | O=C(CSc1nc(-c2ccccc2)cc(=O)[nH]1)NCc1ccccc1 [CBK287734] | 82.7 | –
48 | O=C(Cc1ccc(F)cc1)Nc1nc(-c2cccs2)cs1 [CBK287736] | 82.3 | –
49 | Cc1cc2nc(N3CCN(C(=O)c4ccc(C#N)cc4)CC3)sc2cc1C [CBK287737] | 98.8 | –
50 | O=C(Nc1ccncc1)c1cccn(Cc2ccccc2F)c1=O [CBK287738] | 111 | –
51 | COc1cccc(-n2c(=O)[nH]c3c(C(N)=O)nc(-c4ccccc4)nc32)c1 [CBK287740] | 121 | –
52 | O=C(CSc1nnc(-c2cccnc2)o1)Nc1ccccc1 [CBK287742] | 82.6 | –
53 | COc1ccccc1NC(=O)CSc1nnc(-c2ccncc2)o1 [CBK287743] | 87 | –
54 | O=C(NCc1n[nH]c(=O)c2ccccc12)Nc1ccc(F)cc1 [CBK287744] | 94.2 | –
55 | CC(=O)Nc1ccc(Nc2cc(C)nc(-n3nc(C)cc3C)n2)cc1 [CBK287746] | 103 | –
56 | CCSc1c(C)cnc2c1c(=O)n(C)c(=O)n2C [CBK287748] | 99.8 | –
57 | O=C(Nc1ccc2ncsc2c1)C1COc2ccccc2O1 (centres unmarked) [CBK287750] | 95.6 | –
58 | COc1ccc(SCC(=O)Nc2nccs2)cc1 [CBK287751] | 83.4 | –
59 | O=C(NCCc1c[nH]c2ccccc12)C(=O)Nc1ccncc1 [CBK287754] | 101 | –
60 | O=C(Nc1nc(-c2cc3ccccc3o2)cs1)c1ccc(F)cc1 [CBK287756] | 114 | –
61 | Cc1ccc(-c2cnc(SCC(N)=O)n2-c2ccccc2)cc1 [CBK287757] | 113 | –
62 | CC(=O)c1sc(NC(=O)Cc2ccc(C)cc2)nc1C [CBK287760] | 89.3 | –
63 | CCCC(=O)Nc1nc(-c2ccc(C)cc2)c(C)s1 [CBK287763] | 110 | –

Row | SMILES | viability at 28.5 h, 10 µM (% viability) [%] | viability at 28.5 h, 10 µM [%]
64 | Cc1c(C(=O)Nc2nccs2)nnn1-c1ccccc1 [CBK287766] | 83.9 | –
65 | O=C(CCCn1c(=O)[nH]c2ccsc2c1=O)Nc1ccc(F)cc1 [CBK287769] | 93.3 | –
66 | CCOc1ccc(NC(=O)c2c(O)c3ccccc3n(CC)c2=O)cc1 [CBK287771] | 107 | –
67 | CC(=O)c1ccc(NC(=O)Cn2cnc3c(sc4ncccc43)c2=O)cc1 [CBK287773] | 95.4 | –
68 | CC(=O)Nc1c(-c2ccc(C)cc2)c(=O)c2ccccc2n1C [CBK287775] | 88 | –
69 | CN(C)CCCN1C(=O)C(O)=C(C(=O)c2ccncc2)C1c1ccccc1 (centres unmarked) [CBK287779] | 107 | –
70 | COc1ccc2c(=O)c3c(oc2c1)C(=O)N(CCN(C)C)C3c1ccccn1 (centres unmarked) [CBK287781] | 98.3 | –
71 | CCc1ccc(S(=O)(=O)Nc2cccnc2)cc1 [CBK287782] | 87.5 | –
72 | NC(=O)C1CCN(c2ncnc3c2oc2ccccc23)CC1 [CBK287789] | 87.6 | –
73 | O=C(Nc1ccc(Cl)cc1)c1cccc(-n2cnnn2)c1 [CBK287791] | – | 84.2
74 | NC(=O)CSc1nnc2ccc3ccccc3n12 [CBK287794] | 110 | –
75 | O=C(c1ccc(F)cc1)N1CCN(c2ccccn2)CC1 [CBK287795] | 104 | –
76 | Cc1ccccc1-n1ncc2c1ncn1nc(-c3ccccc3)nc21 [CBK287797] | 94.3 | –
77 | COc1ccc(OCC(=O)Nc2nonc2-c2ccccc2)cc1 [CBK287798] | 93.9 | –
78 | Cc1ccc2nc(C)cc(NC(=O)c3ccncc3)c2c1 [CBK287801] | 81.5 | –
79 | Cc1ccc(C2=NN(C(=O)CCC(=O)O)C(c3ccc4nccnc4c3)C2)cc1 (centres unmarked) [CBK287802] | 109 | –
80 | O=C(Nc1ccncc1)c1ccc(N2C(=O)c3ccccc3C2=O)cc1 [CBK287803] | 113 | –
81 | COc1ccccc1-c1cc2nc(C)cc(Nc3ccccc3)n2n1 [CBK287806] | 97.3 | –
82 | Cc1cc(C)cc(NC(=O)Cn2cnc3c(sc4ccccc43)c2=O)c1 [CBK287807] | 82.5 | –
83 | O=c1c2[nH]c3ccccc3c2ncn1Cc1ccccc1 [CBK287809] | 103 | –
